From US20140128385A1 (NOVARTIS AG, priority 2011, published 2014)
Counter-ions that a name gives are not always drawn.

Target: T1, BACE-2 (Homo sapiens, UniProt Q9Y5Z0)
T1 construct: Recombinant BACE-2 (extracellular domain, expressed in baculovirus and purified using standard methods); made in house
T1 sequence (Q9Y5Z0 63-473 limits assumed): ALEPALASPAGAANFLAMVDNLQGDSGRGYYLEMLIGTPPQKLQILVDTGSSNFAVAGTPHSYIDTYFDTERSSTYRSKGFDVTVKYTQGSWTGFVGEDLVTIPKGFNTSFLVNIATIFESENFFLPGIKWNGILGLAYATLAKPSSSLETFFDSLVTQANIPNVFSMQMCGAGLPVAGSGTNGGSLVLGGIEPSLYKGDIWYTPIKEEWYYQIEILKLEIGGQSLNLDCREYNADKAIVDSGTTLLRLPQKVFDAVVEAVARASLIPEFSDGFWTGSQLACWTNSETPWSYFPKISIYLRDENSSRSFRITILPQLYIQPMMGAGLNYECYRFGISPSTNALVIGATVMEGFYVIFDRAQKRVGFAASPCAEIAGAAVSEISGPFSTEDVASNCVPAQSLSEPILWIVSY
Test: assay for inhibition of BACE-2
Assay type: biochemical

**Q.** How did the IC50 turn out when “5-Bromo-pyridine-2-carboxylic acid[3-((S)-3-amino-5-difluoromethyl-2,5,6,7-tetrahydro-[1,4]oxazepin-5-yl)-4-fluoro-phenyl]-amide hydrochloride [Example 96]” was run?
**A.** 44 nM

**Q.** With `CCC1C(N)=NC(C)(c2cccc(NC(=O)c3ccc(Br)cn3)c2)C(=O)N1C` (mixture of isomers) [Example 200, 5-Bromo-pyridine-2-carboxylic acid [3-(6-amino-5-ethyl-2,4-dimethyl-3-oxo-2,3,4,5-tetrahydro-pyrazin-2-yl)-phenyl]-amide] as the compound, how does the IC50 read?
**A.** 1250 nM

**Q.** For `Cc1cc(C#N)cnc1C(=O)Nc1ccc(F)c(C2(C)COC(CF)(CF)C(N)=N2)c1` (racemic) [Example 251, 5-Cyano-3-methyl-pyridine-2-carboxylic acid [3-(5-amino-6,6-bis-fluoromethyl-3-methyl-3,6-dihydro-2H-[1,4]oxazin-3-yl)-4-fluoro-phenyl]-amide], which IC50 is on record?
**A.** 41 nM

**Q.** How did the IC50 turn out when `CC1(c2cccc(NC(=O)c3ccc(Br)cn3)n2)COCC(N)=N1` (racemic) [Example 258, 5-Bromo-pyridine-2-carboxylic acid [6-(5-amino-3-methyl-3,6-dihydro-2H-[1,4]-oxazin-3-yl)-pyridin-2-yl]-amide] was run?
**A.** 363 nM

**Q.** `C[C@@]1(c2cccc(NC(=O)c3ccc(Br)cn3)c2)CO[C@@](C)(C(F)(F)F)C(N)=N1` (relative stereo) [Example 66, 5-Bromo-pyridine-2-carboxylic acid [3-((3R*,6R*)-5-amino-3,6-dimethyl-6-trifluoromethyl-3,6-dihydro-2H-[1,4]oxazin-3-yl)-phenyl]-amide hydrochloride] was tested. Which IC50 did it give?
**A.** 6 nM

**Q.** `C[C@H]1OC[C@](c2cc(NC(=O)c3ccc(C#N)cn3)ccc2F)(C(F)F)N=C1N` (relative stereo) [Example 75, 5-Cyano-pyridine-2-carboxylic acid [3-((3R*,6R*)-5-amino-3-difluoromethyl-6-methyl-3,6-dihydro-2H-[1,4]oxazin-3-yl)-4-fluoro-phenyl]-amide hydrochloride] was tested. Which IC50 did it give?
**A.** 355 nM

**Q.** For `C[C@@H]1OC[C@](c2cc(NC(=O)c3ccc(C#N)cn3)ccc2F)(C(F)F)N=C1N` (relative stereo) [Example 76, 5-Cyano-pyridine-2-carboxylic acid [3-((3R*,6S*)-5-amino-3-difluoromethyl-6-methyl-3,6-dihydro-2H-[1,4]oxazin-3-yl)-4-fluoro-phenyl]-amide hydrochloride], which IC50 is on record?
**A.** 175 nM

**Q.** With `C[C@H]1OC[C@](c2cc(NC(=O)c3ccc(Br)cn3)ccc2F)(C(F)F)N=C1N` (relative stereo) [Example 77, 5-Bromo-pyridine-2-carboxylic acid [3-((3R*,6R*)-5-amino-3-difluoromethyl-6-methyl-3,6-dihydro-2H-[1,4]oxazin-3-yl)-4-fluoro-phenyl]-amide hydrochloride] as the compound, how does the IC50 read?
**A.** 42 nM

**Q.** Which IC50 does the source give for `C[C@@H]1OC[C@](c2cc(NC(=O)c3ccc(Br)cn3)ccc2F)(C(F)F)N=C1N` (relative stereo) [Example 78, 5-Bromo-pyridine-2-carboxylic acid [3-((3R*,6S*)-5-amino-3-difluoromethyl-6-methyl-3,6-dihydro-2H-[1,4]oxazin-3-yl)-4-fluoro-phenyl]-amide hydrochloride] here?
**A.** 22 nM

**Q.** `Cc1cc(OC(F)F)cnc1C(=O)Nc1ccc(F)c([C@]2(C(F)F)CNCC(N)=N2)c1` (single isomer, unassigned) [Example 212] was tested. Which IC50 did it give?
**A.** 116 nM

**Q.** With `COc1cnc(C(=O)Nc2ccc(F)c([C@]3(C(F)F)CNCC(N)=N3)c2)c(N)n1` (single isomer, unassigned) [Example 213] as the compound, how does the IC50 read?
**A.** 115 nM

**Q.** `Cc1cc(C#N)cnc1C(=O)Nc1ccc(F)c([C@]2(C)COC(CF)(CF)C(N)=N2)c1` (single isomer, unassigned) [Example 252] was tested. Which IC50 did it give?
**A.** 33 nM

**Q.** With `CC1(c2cccc(NC(=O)c3ccco3)c2)COCC(N)=N1` (stereo not shown) [Example 1, Furan-2-carboxylic acid [3-(5-amino-3-methyl-3,6-dihydro-2H-[1,4]oxazin-3-yl)-phenyl]-amide hydrochloride] as the compound, how does the IC50 read?
**A.** 61 nM
